Assay results from ChEMBL document CHEMBL1154556, “Siamenol, a new carbazole alkaloid from Murraya siamensis” (J Nat Prod, 2000).
Values after ≈ are worked out from the molar mass of the structure shown. Active and inactive are the calls of the source. The calls are words filed in the database; no cut-off is given here.

Experiments:
[1] = test system: Human immunodeficiency virus; test: Antiviral activity against HIV; assay type: functional, organism-based
[2] = test system: Human immunodeficiency virus; test: Antiviral activity against HIV assessed as protection against viral infection by XTT-tetrazolium method; assay type: functional

Compound	EC50 ([1]; Human immunodeficiency virus 1) [µg/mL]	Activity [2] [%]	IC50 ([1]; Human immunodeficiency virus 1) [µg/mL]	Activity [1]
CC(C)=CCc1cc2c(cc1O)[nH]c1ccc(C)cc12 [SIAMENOL]	2.6 (≈ 9.8 µM)	50		
CC(C)=CCC/C(C)=C/Cc1c(O)c(C)cc2c1[nH]c1ccccc12 [MAHANIMBILOL]	8.6 (≈ 25.8 µM)		23 (≈ 69 µM)	
CC(C)=CCCC1(C)C=Cc2c(c(C)cc3c2[nH]c2ccccc23)O1 (stereo not given)				inactive
